Experiments:
Barnyardgrass [1] = assay: Herbicidal activity test, foliage treatment; type: in vivo, Echinochloa crus-galli; set-up: key: 0: situations in which the condition of sprouting or vegetation at the time of examination of the plant utilized for the test was compared with and showed totally or substantially no difference with that of the untreated application; 10: situations in which the plant completely withered or the sprouting or vegetation was completely suppressed; settings: sprayed onto the foliage of plants cultivated 10 days, investigated after 16 days in a greenhouse
Procedure: (§1) Soil was packed into a round plastic pot having a diameter of 10 cm and depth of 10 cm. Barnyardgrass, Blackgrass, Ivyleaf morningglory were seeded and cultivated in a greenhouse for 10 days. Five (5) parts of the test compound, 6 parts of sorpol3005X (Toho Chemical Company) and 89 parts of xylene were well mixed to produce an emulsion. A certain amount thereof was diluted with water containing 0.1% (v/v) of a sticking agent at a proportion of 1000 L for 1 hectare and was spread uniformly with a spray-gun onto the all sides of the foliage from above the plant cultivated in the above pot. After cultivating the plants for 16 days in a greenhouse, the herbicidal activity of the test compound was investigated.
(§2) In the above Tables 3 and 4, the strength of the herbicidal activity is shown stepwise as 0, 1, 2, 3, 4, 5, 6, 7, 8, 9, and 10.

Ivyleaf morningglory [2] = assay: Herbicidal activity test, soil surface treatment; type: in vivo, Ipomoea hederacea; set-up: key: 0: situations in which the condition of sprouting or vegetation at the time of examination of the plant utilized for the test was compared with and showed totally or substantially no difference with that of the untreated application; 10: situations in which the plant completely withered or the sprouting or vegetation was completely suppressed; settings: 500 g/ha, sprayed onto the surface of the soil after seeding, investigated after 19 days in a greenhouse
Procedure: (§3) Soil was packed into a round plastic pot having a diameter of 10 cm and depth of 10 cm. Barnyardgrass, Blackgrass, Ivyleaf morningglory were seeded. Five (5) parts of the test compound, 6 parts of sorpol3005X (Toho Chemical Company) and 89 parts of xylene were well mixed to produce an emulsion. A certain amount thereof was diluted with water containing 0.1% (v/v) of a sticking agent at a proportion of 1000 L for 1 hectare and was spread uniformly with a spray-gun onto the surface of the soil. After cultivating the plants for 19 days in a greenhouse, the herbicidal activity was investigated.
as §2

Barnyardgrass [3] = assay: Herbicidal activity test, soil surface treatment; type: in vivo, Echinochloa crus-galli; set-up: key: 0: situations in which the condition of sprouting or vegetation at the time of examination of the plant utilized for the test was compared with and showed totally or substantially no difference with that of the untreated application; 10: situations in which the plant completely withered or the sprouting or vegetation was completely suppressed; settings: 500 g/ha, sprayed onto the surface of the soil after seeding, investigated after 19 days in a greenhouse
Procedure: as §3, §2

Blackgrass [4] = assay: Herbicidal activity test, foliage treatment; type: in vivo, Alopercurus myosuroides; set-up: key: 0: situations in which the condition of sprouting or vegetation at the time of examination of the plant utilized for the test was compared with and showed totally or substantially no difference with that of the untreated application; 10: situations in which the plant completely withered or the sprouting or vegetation was completely suppressed; settings: sprayed onto the foliage of plants cultivated 10 days, investigated after 16 days in a greenhouse
Procedure: as §1, §2

Ivyleaf morningglory [5] = assay: Herbicidal activity test, foliage treatment; type: in vivo, Ipomoea hederacea; set-up: key: 0: situations in which the condition of sprouting or vegetation at the time of examination of the plant utilized for the test was compared with and showed totally or substantially no difference with that of the untreated application; 10: situations in which the plant completely withered or the sprouting or vegetation was completely suppressed; settings: sprayed onto the foliage of plants cultivated 10 days, investigated after 16 days in a greenhouse
Procedure: as §1, §2

Blackgrass [6] = assay: Herbicidal activity test, soil surface treatment; type: in vivo, Alopercurus myosuroides; set-up: key: 0: situations in which the condition of sprouting or vegetation at the time of examination of the plant utilized for the test was compared with and showed totally or substantially no difference with that of the untreated application; 10: situations in which the plant completely withered or the sprouting or vegetation was completely suppressed; settings: 500 g/ha, sprayed onto the surface of the soil after seeding, investigated after 19 days in a greenhouse
Procedure: as §3, §2

[7] = tested on: present invention protein (A1); type: in vitro ADME, Streptomyces phaeochromogenes IFO12898; settings: E. coli JM109/pKSN657F cell suspension, compound at 100 ppm, shaking at 30° C., ethyl acetate layer, HPLC
Procedure: E. coli JM109/pKSN657F was cultured overnight at 37° C. in 3 ml of TB medium containing 50 μg/ml of ampicillin. A milliliter (1 ml) of the obtained culture medium was transferred to 100 ml of TB medium containing 50 μg/ml of ampicillin and cultured at 26° C. When OD660 reached about 0.5, 5-aminolevulinic acid was added to the final concentration of 500 μM, and the culturing was continued. Thirty (30) minutes thereafter, IPTG was added to a final concentration of 1 mM, and there was further culturing for 20 hours.
The cells were recovered from the culture medium, washed with 0.1M tris-HCl buffer (pH7.5) and suspended in 10 ml of 0.1M Tris-HCl buffer containing 1% glucose. Compound (VI) was added to the obtained cell suspension to a final concentration of 100 ppm and that was incubated with shaking at 30° C. At each of 0 hours after and 1 day after the start of shaking, 2 ml of the cell suspension were fractioned. Fifty microliters (50 μl) of 2N HCl were added to each and those were extracted with 2 ml of ethyl acetate. The obtained ethyl acetate layers were analyzed on a HPLC under reaction condition 1. Compared to the concentration of compound (VI) detected from the ethyl acetate layer prepared from the cell suspension at 0 hours after the start of shaking, the concentration of compound (VI) detected from the ethyl acetate later prepared from the cell suspension at 1 day after the start of shaking was lower. Further a peak, which was not detected from the ethyl acetate layer prepared from the cell suspension at 0 hours after the start of shaking, was detected from the ethyl acetate layer prepared from the cell suspension at 1 day after the start of shaking Mass spectrometry of the compound contained in said peak was conducted. […]
Other than utilizing compound (VIII) instead of compound (VI), there was conducted in accordance with the method described in Example 41(6), a culturing of E. coli JM109/pKSN657F, preparation of the cell suspension solution, incubation with shaking of the cell suspension solution to which compound (VIII) was added, reagent preparation from the cell suspension solution and HPLC analysis of the reagents. Compared to the concentration of compound (VIII) detected from the ethyl acetate layer prepared from the cell suspension at 0 hours after the start of shaking, the concentration of compound (VIII) detected from the ethyl acetate layer prepared from the cell suspension at 1 day after the start of shaking was lower. Further two peaks, which were not detected from the ethyl acetate layer prepared from the cell suspension at 0 hours after the start of shaking, were detected from the ethyl acetate layer prepared from the cell suspension at 1 day after the start of shaking Mass spectrometry of the compounds contained in said peaks were conducted. […]

[8] = tested on: present invention protein (A11); assay: Metabolism of compound (X) by the present invention protein (A11), E. coli JM109/pKSN849AF cell suspension; type: in vitro ADME, Streptomyces nogalator IFO13445; settings: compound at 25 ppm, shaking at 30° C., fractioned at 0 hours and 4 days, ethyl acetate layer, HPLC
Procedure: Each of E. coli JM109/pKSN849AF and E. coli JM109/pKSN2 was cultured overnight at 37° C. in 3 ml of TB culture containing 50 μg/ml of ampicillin. A milliliter (1 ml) of the obtained culture mediums was transferred to 100 ml of TB medium containing 50 μg/ml of ampicillin and cultured at 26° C. When OD660 reached about 0.5, 5-aminolevulinic acid was added to the final concentration of 500 μM, and the culturing was continued. Thirty (30) minutes thereafter, IPTG was added to a final concentration of 1 mM, and there was further culturing for 18 hours.
The cells were recovered from the culture medium, washed with 0.1M tris-HCl buffer (pH7.5) and suspended in 10 ml of 0.1M Tris-HCl buffer containing 1% glucose. […] The obtained ethyl acetate layers were analyzed on a HPLC under reaction condition 1. Compared to the concentration of compound (X) detected from the ethyl acetate layer prepared from the JM109/pKSN2 cell suspension, the concentration of compound (X) detected from the ethyl acetate layer prepared from the JM109/pKSN849AF cell suspension was lower. Further 3 peaks, which were not detected from the ethyl acetate layer prepared from the JM109/pKSN2 cell suspension, were detected from the ethyl acetate layer prepared from the JM109/pKSN849AF cell suspension. […]

SMILES	Herbicidal Activity Barnyardgrass (Barnyardgrass [1]; 125 g/ha)	Herbicidal Activity Barnyardgrass (Barnyardgrass [1]; 500 g/ha)	Herbicidal Activity Ivyleaf Morningglory (Ivyleaf morningglory [2])	Herbicidal Activity Barnyardgrass (Barnyardgrass [3])	Herbicidal Activity Blackgrass (Blackgrass [4]; 125 g/ha)	Herbicidal Activity Blackgrass (Blackgrass [4]; 500 g/ha)	Herbicidal Activity Ivyleaf Morningglory (Ivyleaf morningglory [5]; 125 g/ha)	Herbicidal Activity Ivyleaf Morningglory (Ivyleaf morningglory [5]; 500 g/ha)	Herbicidal Activity Blackgrass (Blackgrass [6])	concentration of the compound detected from the cell suspension at 1 day compared to 0 hours after the start of shaking [7]	concentration of the compound detected from the JM109/pKSN849AF cell suspension compared to the JM109/pKSN2 cell suspension [8]
C[C@@H](Oc1cc(-n2c(=O)cc(C(F)(F)F)[nH]c2=O)c(F)cc1Cl)C(=O)O [compound (III)]	0	0	0	0	0	0	0	0	0	–	–
C=CCOC(=O)C(C)(C)OC(=O)c1cc(-n2c(=O)cc(C(F)(F)F)n(C)c2=O)ccc1Cl [compound (X)]	–	–	–	–	–	–	–	–	–	lower	lower

Source: patent publication US8293979B2, “Weed controller metabolism proteins, genes, thereof and use of the same” (Sumitomo Chemical Company, Limited, priority 2001, dated 2012)
